# Laboratory results as given in paper PMC8851282, “Senolysis induced by 25-hydroxycholesterol targets CRYAB in multiple cell types” (iScience, 2022).
# Legend:
# [1] = system: mouse dermal fibroblasts (mDFs); assay: Cell viability assay of NS and SEN mouse dermal fibroblasts treated with CRYAB and HMOX1 inhibitors; format: cell-based; details: 250 nM Doxo-induced senescence; after 72 h of treatment; 25HC at five or 10 μM
# Procedure: The average value of DMSO was set at 1. (B and D) Effects of CRYAB and HMOX1 inhibitors on DMSO-treated NS or Doxo-treated SEN cells; (B) mDFs, (D) IMR-90s. Cells were treated with the inhibitors at the indicated concentrations. Cell viability was measured after 72 h. (C) IMR-90 qRT-PCR. For qPCR: mean +/- SE, n =4, ∗p< 0.05, ∗∗p< 0.01, ∗∗∗p<0.001, ∗∗∗∗p<0.0001 by Dunnett’s multiple comparisons test vs DMSO. For cell viability assays: mean +/- SE, n =3, ∗∗p< 0.01, ∗∗∗p<0.001, ∗∗∗∗p<0.0001 vs 0 mM by student’s t test.
# For skin sample collection, mice were euthanized, hair removed from dorsal skin and the area cleaned with alcohol. A small 1 cm x 1 cm region of skin was removed, and subcutaneous fat removed by scalpel. Skin was digested in 2–3 ml of 0.25% trypsin at 37 °C for 1 h. Hair and epidermis were further removed, and the dermis was minced into 2–3 mm pieces. Digestion of the sample in 5 ml of 1 mg/ml collagenase (Sigma, Cat#C5138) in HBSS (with Ca^++ and Mg^++) (Gibco, cat#24020117) was carried out at 37 °C on a shaker for 1 h. Collagenase digestion was stopped by addition of 10 ml 10% FBS DMEM. Filtration of the homogenate through a 70-micron mesh was performed to remove undigested tissue. Differential centrifugation and washing were performed at 1200 rpm for 5 min, and the pellet was resuspended in 10% FBS DMEM then seeded in a six-well plate. Media were changed at 5 days after seeding and then every 3 days.
# All experiments were performed in incubators at 37 °C, 3% O2 and 5% CO2. Senescence was induced by treatment with either Doxo (250 nM for 24 h) ([Demaria et al., 2017]) or X-irradiation (10 Gy) ([Limbad et al., 2020]). For cell culture studies using 25HC, it was used at the indicated concentrations in the media.
# Cell viability was assessed using a cell counting kit-8 from Dojindo Molecular Technologies, Inc (Cat CK04-20). Cells were incubated with culture media + 10% kit cell viability reagent, 150 μL/well in 96-well plates for 2 h. The supernatant was transferred to a new 96-well plate and absorbance read at 450 nm as recommended in the product datasheet.
# 15-d-PGJ2 = 15-d-PGJ2 ELISA in urine of aged mice given 25HC; format: in vivo, mouse; details: 24–26-month-old mice, both genders; urine 12 h after the first treatment with 25HC 50 mg/kg i.p., relative to controls
# Procedure: Figure 9 25HC is an in vivo senolytic in tissues of aged mice (A) Timeline of 25HC treatment in aged mice. Young (5 months old) and old (24–26 months old) mice were treated with 25HC or vehicle for 5 consecutive days. (B) Mass of gastrocnemius muscles in male and female mice. Muscle weight was normalized to body weight. (C) Cdkn1a and Cryab mRNA levels in gastrocnemius (Gastroc) and soleus (Sol) muscles. RNA was collected at 7–9 d after the first treatment with 25HC or vehicle. mRNA levels of the indicated genes were quantified by qRT-PCR, and normalized to those of actin mRNA. The average value of young-vehicle was set at 1. (D) 15-d-PGJ2 analysis in urine. […]
# Two groups of male and female C57BL/6J mice were used. […] Senescence markers and CRYAB were analyzed using mRNA from gastrocnemius (Gastroc), soleus (So), tibialis anterior (TA), visceral fat (VF), kidney (Ki), liver (Li), lung (Lu), heart (He), and skin (Sk) samples using qRT-PCR (Figures S14, S15, S16, S17, and S18).
# Urine was collected at 12 or 24 h after the first treatment with 25HC or vehicle and diluted 10-fold with assay buffer. The amount of 15-d-PGJ2 was measured using a 15-deoxy-Δ^12,14-PGJ2 ELISA kit according to manufactures’ protocol (Enzo Life Sciences).
smiles,measurement,setting,value
"C[C@H](CCCC(C)(C)O)[C@H]1CC[C@H]2[C@@H]3CC=C4C[C@@H](O)CC[C@]4(C)[C@H]3CC[C@]12C [25HC, 25-hydroxycholesterol]",senolysis in mDF cells,[1],induced significant senolysis
same,15-d-PGJ2 level in urine,15-d-PGJ2,greater
